Columns and labels:
Format in all cases: biochemical
PDGFRB = target: T1, PDGFRB (Homo sapiens, UniProt P09619); experiment: Kinase inhibition assay (33P transfer), PDGFRB; details: read-out: PDGFRB-1
T1 construct: Kinases are expressed as either kinase domains or full length constructs; made in house

IGFR-1 = target: T2, IGFR-1 (Homo sapiens, UniProt P08069); experiment: Kinase inhibition assay, IGFR-1 (Table 2); details: Table 2, kinase inhibition class
T2 construct: Kinases are expressed as either kinase domains or full length constructs; made in house

Lck = target: T3, Lck (Homo sapiens, UniProt P06239); experiment: Kinase inhibition assay (33P transfer), Lck; details: read-out: Lck-1
T3 construct: Kinases are expressed as either kinase domains or full length constructs; made in house
Summary of the method: (§1)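 Kinase domains or full-length kinases, GST- or His-tagged and expressed in E. coli or baculovirus/High Five cells, transferred 33PO4 from ATP onto plate-bound poly(Glu,Tyr) 4:1 or poly(Arg,Ser) 3:1. After incubation, plates were washed with 0.5% phosphoric acid and counted by liquid scintillation.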

Kdr = target: T4, Kdr (Homo sapiens, UniProt P35968); experiment: Kinase inhibition assay (33P transfer), Kdr; details: read-out: KDR-1
T4 construct: Kinases are expressed as either kinase domains or full length constructs; made in house
T4 sequence (P35968 20-1356, species assumed): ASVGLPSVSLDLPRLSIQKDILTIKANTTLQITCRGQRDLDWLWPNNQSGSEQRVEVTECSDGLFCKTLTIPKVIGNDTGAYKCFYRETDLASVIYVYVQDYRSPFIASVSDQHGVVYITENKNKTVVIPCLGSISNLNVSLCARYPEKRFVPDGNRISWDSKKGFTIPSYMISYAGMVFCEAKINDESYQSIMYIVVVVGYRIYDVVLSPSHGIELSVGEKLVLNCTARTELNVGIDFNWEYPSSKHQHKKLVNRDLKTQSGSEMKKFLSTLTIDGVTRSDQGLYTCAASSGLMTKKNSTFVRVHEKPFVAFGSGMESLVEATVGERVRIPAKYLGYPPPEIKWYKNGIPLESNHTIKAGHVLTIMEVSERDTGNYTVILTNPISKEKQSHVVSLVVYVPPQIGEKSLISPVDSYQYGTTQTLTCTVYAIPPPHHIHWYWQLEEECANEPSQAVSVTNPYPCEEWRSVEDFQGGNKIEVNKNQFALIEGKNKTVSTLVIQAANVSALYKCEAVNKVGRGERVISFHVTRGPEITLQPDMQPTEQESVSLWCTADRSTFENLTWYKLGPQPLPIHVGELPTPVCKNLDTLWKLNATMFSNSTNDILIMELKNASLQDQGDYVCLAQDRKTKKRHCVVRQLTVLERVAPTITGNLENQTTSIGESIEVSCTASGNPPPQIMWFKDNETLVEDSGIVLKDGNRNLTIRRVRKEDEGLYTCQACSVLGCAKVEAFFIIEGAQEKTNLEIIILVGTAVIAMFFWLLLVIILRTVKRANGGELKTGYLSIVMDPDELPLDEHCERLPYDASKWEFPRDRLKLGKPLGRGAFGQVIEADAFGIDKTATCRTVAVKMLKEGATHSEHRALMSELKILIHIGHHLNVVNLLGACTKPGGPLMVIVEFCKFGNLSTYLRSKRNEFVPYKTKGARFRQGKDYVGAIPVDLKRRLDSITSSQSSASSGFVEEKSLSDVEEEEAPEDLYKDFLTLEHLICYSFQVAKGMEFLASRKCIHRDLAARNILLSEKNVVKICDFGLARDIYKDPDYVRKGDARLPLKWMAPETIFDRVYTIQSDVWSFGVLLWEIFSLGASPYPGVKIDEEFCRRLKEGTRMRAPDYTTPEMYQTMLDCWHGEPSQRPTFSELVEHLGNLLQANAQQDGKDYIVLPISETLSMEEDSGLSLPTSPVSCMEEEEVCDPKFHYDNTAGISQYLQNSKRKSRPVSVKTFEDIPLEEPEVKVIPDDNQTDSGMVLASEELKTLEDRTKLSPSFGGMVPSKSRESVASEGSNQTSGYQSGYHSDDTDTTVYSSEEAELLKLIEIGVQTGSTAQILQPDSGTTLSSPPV
Summary of the method: as §1

EGFR = target: T5, EGFR (Homo sapiens, UniProt P00533); experiment: Kinase inhibition assay (33P transfer), EGFR; details: Table 2, kinase inhibition class; read-out: EGFR-1
T5 construct: Kinases are expressed as either kinase domains or full length constructs; made in house
T5 sequence (P00533 25-1210, species assumed): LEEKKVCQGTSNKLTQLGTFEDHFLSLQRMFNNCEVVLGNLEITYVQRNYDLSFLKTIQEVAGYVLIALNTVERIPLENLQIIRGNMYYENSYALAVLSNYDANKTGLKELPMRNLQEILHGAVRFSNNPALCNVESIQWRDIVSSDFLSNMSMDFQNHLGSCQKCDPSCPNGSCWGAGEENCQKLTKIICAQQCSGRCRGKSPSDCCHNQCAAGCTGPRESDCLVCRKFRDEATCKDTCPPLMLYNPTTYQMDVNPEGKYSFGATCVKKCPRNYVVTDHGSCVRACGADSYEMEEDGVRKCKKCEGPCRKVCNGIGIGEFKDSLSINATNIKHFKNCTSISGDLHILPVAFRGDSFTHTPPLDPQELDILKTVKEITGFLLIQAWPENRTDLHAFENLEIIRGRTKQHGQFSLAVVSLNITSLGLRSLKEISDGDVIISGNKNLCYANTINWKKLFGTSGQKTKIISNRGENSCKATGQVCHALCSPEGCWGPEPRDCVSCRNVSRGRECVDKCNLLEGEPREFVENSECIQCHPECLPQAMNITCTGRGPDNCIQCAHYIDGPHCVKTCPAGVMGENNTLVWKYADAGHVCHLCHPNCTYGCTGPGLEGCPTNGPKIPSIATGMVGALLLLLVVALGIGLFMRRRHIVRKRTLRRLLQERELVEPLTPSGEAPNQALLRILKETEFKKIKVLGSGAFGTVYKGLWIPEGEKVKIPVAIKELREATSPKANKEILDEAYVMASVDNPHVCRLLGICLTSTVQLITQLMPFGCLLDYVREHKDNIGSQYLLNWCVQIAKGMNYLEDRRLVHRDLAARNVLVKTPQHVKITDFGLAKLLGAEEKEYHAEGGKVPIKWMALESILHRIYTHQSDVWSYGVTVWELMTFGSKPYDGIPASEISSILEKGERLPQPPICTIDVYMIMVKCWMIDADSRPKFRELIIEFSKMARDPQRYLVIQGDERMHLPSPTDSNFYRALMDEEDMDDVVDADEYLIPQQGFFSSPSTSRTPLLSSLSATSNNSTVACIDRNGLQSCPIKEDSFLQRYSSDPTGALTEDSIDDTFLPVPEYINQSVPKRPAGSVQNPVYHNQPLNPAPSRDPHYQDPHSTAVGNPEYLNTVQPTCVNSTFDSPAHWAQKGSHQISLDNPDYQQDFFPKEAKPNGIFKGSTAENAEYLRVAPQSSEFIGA
Summary of the method: (§2)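 Read-out: scintillation counts of 33P moved from ATP onto synthetic peptide polymer coated on the well surface, after washing with 0.5% phosphoric acid. Enzymes were tagged (GST or polyHistidine) and came from bacterial or insect-cell expression. IC50 marks 50% loss of incorporated label.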

c-Met = target: T6, c-Met (Homo sapiens, UniProt P08581); experiment: Kinase inhibition assay (33P transfer), c-Met; details: Table 2, kinase inhibition class; read-out: Met-1
T6 construct: Kinases are expressed as either kinase domains or full length constructs; made in house
Summary of the method: as §2

ErbB2 = target: T7, ErbB2 (Homo sapiens, UniProt P04626); experiment: Kinase inhibition assay (33P transfer), ErbB2; details: read-out: ErbB2-2
T7 construct: Kinases are expressed as either kinase domains or full length constructs; made in house
T7 sequence (P04626 23-1255, species assumed): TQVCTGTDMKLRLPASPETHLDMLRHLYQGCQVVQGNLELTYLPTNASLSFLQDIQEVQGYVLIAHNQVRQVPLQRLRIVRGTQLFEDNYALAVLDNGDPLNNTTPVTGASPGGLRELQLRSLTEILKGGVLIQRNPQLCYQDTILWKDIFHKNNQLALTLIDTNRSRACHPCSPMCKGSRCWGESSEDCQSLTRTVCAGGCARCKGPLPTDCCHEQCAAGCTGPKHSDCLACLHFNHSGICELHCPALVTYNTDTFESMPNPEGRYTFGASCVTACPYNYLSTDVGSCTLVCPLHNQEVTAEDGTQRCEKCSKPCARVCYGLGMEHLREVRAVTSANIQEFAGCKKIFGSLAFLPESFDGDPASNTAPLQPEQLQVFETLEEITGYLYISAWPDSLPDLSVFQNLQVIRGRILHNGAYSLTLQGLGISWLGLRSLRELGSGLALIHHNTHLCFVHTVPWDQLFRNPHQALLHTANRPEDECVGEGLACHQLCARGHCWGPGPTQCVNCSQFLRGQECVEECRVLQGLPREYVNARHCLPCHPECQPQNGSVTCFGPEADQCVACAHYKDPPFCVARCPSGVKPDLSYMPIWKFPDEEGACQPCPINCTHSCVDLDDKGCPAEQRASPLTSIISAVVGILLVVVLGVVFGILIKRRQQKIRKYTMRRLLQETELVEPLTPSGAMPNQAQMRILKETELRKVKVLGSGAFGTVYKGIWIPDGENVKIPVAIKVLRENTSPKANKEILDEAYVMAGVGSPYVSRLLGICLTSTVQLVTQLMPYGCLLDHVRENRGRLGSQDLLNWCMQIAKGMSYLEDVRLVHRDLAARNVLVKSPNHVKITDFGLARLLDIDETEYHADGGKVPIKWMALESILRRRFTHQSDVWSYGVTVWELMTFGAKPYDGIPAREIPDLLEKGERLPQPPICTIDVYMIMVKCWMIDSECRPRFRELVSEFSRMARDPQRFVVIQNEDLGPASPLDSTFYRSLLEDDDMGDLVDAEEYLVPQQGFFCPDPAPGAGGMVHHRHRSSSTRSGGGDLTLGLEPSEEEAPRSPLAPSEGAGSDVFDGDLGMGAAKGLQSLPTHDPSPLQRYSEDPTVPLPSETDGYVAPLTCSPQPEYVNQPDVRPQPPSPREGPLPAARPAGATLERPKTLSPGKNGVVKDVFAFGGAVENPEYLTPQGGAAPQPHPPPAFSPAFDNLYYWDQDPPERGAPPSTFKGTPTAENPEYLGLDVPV
Summary of the method: as §2

Zap-70 = target: T8, Zap-70 (Homo sapiens, UniProt P43403); experiment: Kinase inhibition assay (33P transfer), Zap-70; details: read-out: Zap-1
T8 construct: Kinases are expressed as either kinase domains or full length constructs; made in house
T8 sequence (P43403 1-619): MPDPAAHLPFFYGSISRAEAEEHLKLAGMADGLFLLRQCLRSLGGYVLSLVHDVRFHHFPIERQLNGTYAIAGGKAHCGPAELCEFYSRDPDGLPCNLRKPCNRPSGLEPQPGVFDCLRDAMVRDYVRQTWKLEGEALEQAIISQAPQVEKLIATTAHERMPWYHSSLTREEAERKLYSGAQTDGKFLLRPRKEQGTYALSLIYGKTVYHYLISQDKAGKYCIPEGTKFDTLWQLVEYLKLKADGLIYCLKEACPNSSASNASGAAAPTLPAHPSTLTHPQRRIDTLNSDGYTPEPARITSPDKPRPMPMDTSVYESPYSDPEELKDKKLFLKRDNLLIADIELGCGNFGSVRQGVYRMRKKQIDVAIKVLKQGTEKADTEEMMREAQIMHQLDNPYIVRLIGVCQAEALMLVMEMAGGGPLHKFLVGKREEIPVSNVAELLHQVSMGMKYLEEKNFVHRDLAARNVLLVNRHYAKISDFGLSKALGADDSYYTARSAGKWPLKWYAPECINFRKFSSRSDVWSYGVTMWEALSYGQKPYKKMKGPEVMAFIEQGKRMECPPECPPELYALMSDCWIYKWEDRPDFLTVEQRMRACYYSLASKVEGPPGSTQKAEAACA
Summary of the method: as §1

AKT = target: T9, AKT (Homo sapiens, UniProt Q9Y243); experiment: Kinase inhibition assay (33P transfer), AKT; details: Table 2, kinase inhibition class; read-out: AKT3-1
T9 construct: Kinases are expressed as either kinase domains or full length constructs; made in house
Summary of the method: as §1

Itk = target: T10, Itk (Homo sapiens, UniProt Q08881); experiment: Kinase inhibition assay (33P transfer), Itk; details: read-out: Itk-1
T10 construct: Kinases are expressed as either kinase domains or full length constructs; made in house
T10 sequence (Q08881 1-620): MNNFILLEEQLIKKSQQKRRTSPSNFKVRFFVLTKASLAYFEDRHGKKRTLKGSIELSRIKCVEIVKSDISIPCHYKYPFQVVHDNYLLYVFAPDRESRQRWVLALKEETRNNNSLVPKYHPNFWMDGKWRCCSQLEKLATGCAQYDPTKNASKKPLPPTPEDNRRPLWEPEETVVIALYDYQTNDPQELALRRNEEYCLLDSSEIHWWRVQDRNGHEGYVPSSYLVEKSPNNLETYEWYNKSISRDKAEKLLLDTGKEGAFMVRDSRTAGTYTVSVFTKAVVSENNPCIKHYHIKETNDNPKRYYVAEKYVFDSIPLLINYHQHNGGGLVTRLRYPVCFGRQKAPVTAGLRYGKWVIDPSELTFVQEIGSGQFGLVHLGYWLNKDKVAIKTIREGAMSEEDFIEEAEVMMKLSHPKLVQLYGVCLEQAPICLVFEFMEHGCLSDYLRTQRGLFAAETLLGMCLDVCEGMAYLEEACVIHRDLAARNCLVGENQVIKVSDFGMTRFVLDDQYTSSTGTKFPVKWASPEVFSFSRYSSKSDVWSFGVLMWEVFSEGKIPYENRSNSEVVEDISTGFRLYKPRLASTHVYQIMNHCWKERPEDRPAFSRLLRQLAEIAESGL
Summary of the method: as §2

T1 sequence (P09619 33-1106, species assumed): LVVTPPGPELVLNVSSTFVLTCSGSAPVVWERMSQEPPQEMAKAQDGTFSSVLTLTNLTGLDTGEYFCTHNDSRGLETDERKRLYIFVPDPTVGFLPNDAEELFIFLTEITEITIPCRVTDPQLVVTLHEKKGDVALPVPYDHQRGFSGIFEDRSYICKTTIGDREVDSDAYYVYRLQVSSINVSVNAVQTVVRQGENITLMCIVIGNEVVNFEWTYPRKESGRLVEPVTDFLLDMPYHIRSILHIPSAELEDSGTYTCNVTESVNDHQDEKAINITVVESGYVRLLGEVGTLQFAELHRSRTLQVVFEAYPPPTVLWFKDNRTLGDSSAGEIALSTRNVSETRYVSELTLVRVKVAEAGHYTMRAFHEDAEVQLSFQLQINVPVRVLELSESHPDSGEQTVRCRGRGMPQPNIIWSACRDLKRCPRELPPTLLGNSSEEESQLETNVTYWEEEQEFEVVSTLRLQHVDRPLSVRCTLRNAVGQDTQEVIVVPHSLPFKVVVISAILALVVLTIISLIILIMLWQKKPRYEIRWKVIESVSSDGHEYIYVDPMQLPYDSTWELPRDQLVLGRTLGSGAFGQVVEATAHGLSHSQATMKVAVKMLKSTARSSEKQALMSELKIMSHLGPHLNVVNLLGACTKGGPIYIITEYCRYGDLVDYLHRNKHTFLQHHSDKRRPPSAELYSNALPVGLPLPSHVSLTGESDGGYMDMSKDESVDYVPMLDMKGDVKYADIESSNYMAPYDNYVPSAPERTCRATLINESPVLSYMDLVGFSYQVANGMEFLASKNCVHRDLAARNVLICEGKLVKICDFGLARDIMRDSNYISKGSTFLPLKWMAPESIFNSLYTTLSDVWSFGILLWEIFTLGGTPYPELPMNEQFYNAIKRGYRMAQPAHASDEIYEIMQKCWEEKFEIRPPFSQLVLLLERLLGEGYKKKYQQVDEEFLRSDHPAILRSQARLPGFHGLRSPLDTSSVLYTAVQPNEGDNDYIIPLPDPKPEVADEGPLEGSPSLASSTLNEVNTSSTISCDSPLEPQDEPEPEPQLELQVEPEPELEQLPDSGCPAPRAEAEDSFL

| SMILES | IC50 (PDGFRB) | IC50 (IGFR-1) | IC50 (Lck) | IC50 (Kdr) | IC50 (EGFR) | IC50 (c-Met) | IC50 (ErbB2) | IC50 (Zap-70) | IC50 (AKT) | IC50 (Itk) |
| --- | --- | --- | --- | --- | --- | --- | --- | --- | --- | --- |
| c1ccc(Cn2ncc3cc(Nc4ncnc(Nc5ccc(N6CCCCC6)cc5)n4)ccc32)cc1 [Compound 735] | > 9.44 µM | 7.34 to 9.44 µM | > 9.44 µM | 0.839 to 5.04 µM | < 0.839 µM | 7.34 to 9.44 µM | 0.839 to 5.04 µM | 5.04 to 7.34 µM | 5.04 to 7.34 µM | 7.34 to 9.44 µM |
| COc1cc(Nc2ncnc(-n3c(Nc4cccc(F)c4)nc4ccccc43)n2)cc(OC)c1OC [Compound 1053] | < 0.821 µM | > 9.23 µM | 0.821 to 4.92 µM | < 0.821 µM | 4.92 to 7.18 µM | > 9.23 µM | > 9.23 µM | > 9.23 µM | > 9.23 µM | > 9.23 µM |
| COc1ccc(Nc2ncnc(NCCNC(C)=O)n2)cc1OC [Compound 784] | > 13.5 µM | > 13.5 µM | > 13.5 µM | > 13.5 µM | > 13.5 µM | > 13.5 µM | > 13.5 µM | > 13.5 µM | > 13.5 µM | > 13.5 µM |
| COc1ccc2c(c1)CCCN2c1ncnc(Nc2cc(OC)c(OC)c(OC)c2)n1 [Compound 631] | < 0.945 µM | 0.945 to 5.67 µM | < 0.945 µM | < 0.945 µM | 0.945 to 5.67 µM | < 0.945 µM | 0.945 to 5.67 µM | > 10.6 µM | > 10.6 µM | > 10.6 µM |
| c1ccc(Cn2ncc3cc(Nc4ncnc(Nc5cc(-c6ccccc6)[nH]n5)n4)ccc32)cc1 [Compound 737] | 5.22 to 7.62 µM | 0.87 to 5.22 µM | 5.22 to 7.62 µM | 0.87 to 5.22 µM | 0.87 to 5.22 µM | 5.22 to 7.62 µM | 0.87 to 5.22 µM | 7.62 to 9.79 µM | 7.62 to 9.79 µM | 0.87 to 5.22 µM |
| Cc1ccc2c(c1)CCCN2c1ncnc(NCCCn2ccnc2)n1 [Compound 772] | 10 to 12.9 µM | > 12.9 µM | > 12.9 µM | > 12.9 µM | > 12.9 µM | > 12.9 µM | > 12.9 µM | > 12.9 µM | > 12.9 µM | 10 to 12.9 µM |
| CC(=O)c1ccc(Nc2ncnc(Nc3ccc4c(cnn4Cc4ccccc4)c3)n2)cc1 [Compound 730] | 0.919 to 5.51 µM | 0.919 to 5.51 µM | 5.51 to 8.04 µM | 0.919 to 5.51 µM | < 0.919 µM | 0.919 to 5.51 µM | 0.919 to 5.51 µM | 0.919 to 5.51 µM | 5.51 to 8.04 µM | 0.919 to 5.51 µM |
| COC(=O)Cc1cccc(Nc2ncnc(Nc3cccc(Br)c3)n2)c1 [Compound 540] | 8.45 to 10.9 µM | < 0.966 µM | 0.966 to 5.79 µM | 5.79 to 8.45 µM | < 0.966 µM | 5.79 to 8.45 µM | 0.966 to 5.79 µM | > 10.9 µM | > 10.9 µM | 8.45 to 10.9 µM |
| COc1cc(Nc2ncnc(Nc3ccc(OCC(=O)Nc4ccccc4)cc3)n2)cc(OC)c1OC [Compound 623] | < 0.796 µM | 0.796 to 4.78 µM | < 0.796 µM | 0.796 to 4.78 µM | 0.796 to 4.78 µM | 6.96 to 8.95 µM | 0.796 to 4.78 µM | > 8.95 µM | > 8.95 µM | 0.796 to 4.78 µM |
| Cc1cccc(Nc2ncnc(Nc3cc(-c4ccccc4)n[nH]3)n2)c1 [Compound 1012] | 1.16 to 6.99 µM | < 1.16 µM | 1.16 to 6.99 µM | 1.16 to 6.99 µM | < 1.16 µM | 1.16 to 6.99 µM | 6.99 to 10.2 µM | 10.2 to 13.1 µM | 1.16 to 6.99 µM | 1.16 to 6.99 µM |
| CCC(O)CNc1ncnc(Nc2ccc(OC)c(OC)c2)n1 (centres unmarked) [Compound 788] | 11 to 14.1 µM | > 14.1 µM | > 14.1 µM | > 14.1 µM | > 14.1 µM | > 14.1 µM | > 14.1 µM | > 14.1 µM | > 14.1 µM | > 14.1 µM |
| CN(c1cccc(Cl)c1)c1ncnc(Nc2ccc(S(C)(=O)=O)cc2)n1 [Compound 749] | 1.03 to 6.16 µM | > 11.5 µM | 1.03 to 6.16 µM | 6.16 to 8.98 µM | < 1.03 µM | 1.03 to 6.16 µM | 1.03 to 6.16 µM | > 11.5 µM | > 11.5 µM | > 11.5 µM |
| CCN(c1ccccc1)c1ncnc(Nc2cc(OC)c(OC)c(OC)c2)n1 [Compound 536] | 1.05 to 6.29 µM | 1.05 to 6.29 µM | 1.05 to 6.29 µM | < 1.05 µM | < 1.05 µM | < 1.05 µM | 1.05 to 6.29 µM | > 11.8 µM | > 11.8 µM | > 11.8 µM |
| Cc1cccc(Nc2ncnc(N(C)c3cccc(Br)c3)n2)c1 [Compound 666] | 9.45 to 12.2 µM | > 12.2 µM | 6.48 to 9.45 µM | > 12.2 µM | < 1.08 µM | 6.48 to 9.45 µM | 1.08 to 6.48 µM | > 12.2 µM | > 12.2 µM | > 12.2 µM |
| COC(=O)c1sccc1Nc1ncnc(N2CCCc3cc(C)ccc32)n1 [Compound 767] | > 11.8 µM | > 11.8 µM | > 11.8 µM | > 11.8 µM | > 11.8 µM | > 11.8 µM | > 11.8 µM | > 11.8 µM | > 11.8 µM | > 11.8 µM |
| CN(c1cccc(Cl)c1)c1ncnc(Nc2ccc(C(F)(F)F)cc2)n1 [Compound 744] | > 11.8 µM | > 11.8 µM | > 11.8 µM | > 11.8 µM | 1.05 to 6.32 µM | > 11.8 µM | > 11.8 µM | > 11.8 µM | > 11.8 µM | > 11.8 µM |
| CN1CCN(Cc2cccc(Nc3ncnc(Nc4ccc5c(cnn5Cc5ccccc5)c4)n3)c2)CC1 [Compound 552] | > 8.9 µM | > 8.9 µM | > 8.9 µM | > 8.9 µM | > 8.9 µM | > 8.9 µM | > 8.9 µM | > 8.9 µM | > 8.9 µM | > 8.9 µM |
| CN(c1cccc(Cl)c1)c1ncnc(N[C@@H]2CCN(Cc3ccccc3)C2)n1 [Compound 755] | > 11.4 µM | > 11.4 µM | > 11.4 µM | > 11.4 µM | > 11.4 µM | > 11.4 µM | > 11.4 µM | > 11.4 µM | > 11.4 µM | > 11.4 µM |
| CN(c1cccc(Cl)c1)c1ncnc(Nc2cc(-c3ccco3)[nH]n2)n1 [Compound 753] | 1.09 to 6.53 µM | 1.09 to 6.53 µM | 1.09 to 6.53 µM | 1.09 to 6.53 µM | < 1.09 µM | 1.09 to 6.53 µM | 1.09 to 6.53 µM | 1.09 to 6.53 µM | > 12.2 µM | 1.09 to 6.53 µM |
| COc1cc(Nc2ncnc(N(C)c3ccc(F)c(Cl)c3)n2)cc(OC)c1OC [Compound 710] | 0.953 to 5.72 µM | 5.72 to 8.34 µM | < 0.953 µM | 0.953 to 5.72 µM | < 0.953 µM | 0.953 to 5.72 µM | < 0.953 µM | > 10.7 µM | > 10.7 µM | > 10.7 µM |
